ChEMBL document CHEMBL1201862, “PubChem BioAssay data set” (2004)
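The compound was tested at five concentrations on cells cultured in 96-well plates, with a 48-hour exposure period. Here, GI50 denotes the concentration required for 50% inhibition of growth.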 Calls of active or inactive are those of the source. Cut-off read from the data, not from the text of the source: active = GI50 up to about 1.1 µM and inactive = higher.

What was measured:
Test in all cases: DTP human tumour cell line panel, 48 h
UACC-257 = test system: UACC-257
ACHN = test system: ACHN
COLO 205 = test system: COLO 205
UACC-62 = test system: UACC-62
KM12 = test system: KM12
TK-10 = test system: TK-10
M14 = test system: M14
OVCAR-3 = test system: OVCAR-3
786-0 = test system: 786-0
NCI-H226 = test system: NCI-H226
SF-268 = test system: SF-268
A498 = test system: A498
CCRF-CEM = test system: CCRF-CEM
RXF 393 = test system: RXF 393
IGROV-1 = test system: IGROV-1
SNB-75 = test system: SNB-75
HCT-116 = test system: HCT-116

Measured: GI50

O=C(Nc1c(-c2nc3ccccc3[nH]2)sc(=S)n1-c1ccccc1)c1ccccc1
inactive: UACC-257 > 100 µM | ACHN > 100 µM | COLO 205 > 100 µM | UACC-62 > 100 µM | KM12 > 100 µM | TK-10 > 100 µM | M14 > 100 µM | OVCAR-3 96.8 µM | 786-0 91.2 µM | NCI-H226 24.5 µM | SF-268 > 100 µM | A498 > 100 µM | CCRF-CEM > 100 µM | RXF 393 > 100 µM | IGROV-1 > 100 µM | SNB-75 29.4 µM

CC1CCc2c(sc3ncnc(N/N=C/c4ccc(Cl)cc4)c23)C1 (stereo not given)
inactive: UACC-257 29.8 µM | ACHN 27.3 µM | COLO 205 31.6 µM | UACC-62 31.1 µM | TK-10 38.2 µM | M14 28 µM | OVCAR-3 35.4 µM | 786-0 34.7 µM | NCI-H226 11.7 µM | SF-268 25.1 µM | CCRF-CEM > 10 µM | RXF 393 29.6 µM | IGROV-1 53.1 µM | HCT-116 19.3 µM | SNB-75 78.9 µM

Nc1nnc2nc(CC(=O)/C=C/c3ccccc3)c(=O)[nH]n12
inactive: UACC-257 > 100 µM | ACHN > 100 µM | COLO 205 > 100 µM | UACC-62 > 100 µM | KM12 > 100 µM | TK-10 > 100 µM | M14 > 100 µM | OVCAR-3 > 100 µM | 786-0 > 100 µM | NCI-H226 > 100 µM | SF-268 > 100 µM | A498 > 100 µM | CCRF-CEM > 100 µM | RXF 393 > 100 µM | IGROV-1 > 100 µM | HCT-116 > 100 µM | SNB-75 > 100 µM

CSc1n/c(=N\c2ccccc2)sn1-c1ccccc1
inactive: UACC-257 20.3 µM | ACHN 18.9 µM | COLO 205 7.73 µM | UACC-62 4.76 µM | KM12 17.3 µM | TK-10 26.7 µM | M14 10.7 µM | OVCAR-3 18 µM | 786-0 16.6 µM | NCI-H226 15.5 µM | SF-268 19.6 µM | A498 18.7 µM | CCRF-CEM 11.2 µM | RXF 393 16.8 µM | IGROV-1 4.65 µM | HCT-116 8.43 µM | SNB-75 27.2 µM

CN(C)CCNC(=O)c1cccc2ccc(-c3cccnc3)nc12
inactive: UACC-257 4.15 µM | ACHN 3.44 µM | COLO 205 3.13 µM | UACC-62 4.73 µM | KM12 6.5 µM | TK-10 2.48 µM | M14 8.45 µM | OVCAR-3 6.27 µM | 786-0 5.89 µM | NCI-H226 6.84 µM | SF-268 5.65 µM | A498 1.9 µM | CCRF-CEM 6.4 µM | RXF 393 6.32 µM | IGROV-1 3.24 µM | HCT-116 3.24 µM | SNB-75 10.6 µM

O=C(O)CCSC(=S)Nc1cccc(F)c1
inactive: UACC-257 22.3 µM | ACHN 23.8 µM | COLO 205 57.5 µM | UACC-62 13.4 µM | KM12 42.1 µM | TK-10 43.4 µM | M14 37.1 µM | OVCAR-3 33.7 µM | 786-0 > 100 µM | NCI-H226 33.7 µM | SF-268 45.6 µM | A498 30.4 µM | RXF 393 30.5 µM | IGROV-1 29.2 µM | HCT-116 97.3 µM | SNB-75 82 µM

COc1cccc2nc3cc(C)c(C)cc3nc12
inactive: UACC-257 > 100 µM | ACHN > 100 µM | COLO 205 > 100 µM | UACC-62 > 100 µM | KM12 > 100 µM | TK-10 > 100 µM | M14 > 100 µM | OVCAR-3 > 100 µM | 786-0 > 100 µM | NCI-H226 > 100 µM | SF-268 > 100 µM | A498 > 100 µM | CCRF-CEM > 100 µM | RXF 393 > 100 µM | IGROV-1 > 100 µM | HCT-116 > 100 µM | SNB-75 > 100 µM

COc1ccc(C(=O)Nc2ccn(CCOC(=O)c3ccc(OC)cc3)c(=O)n2)cc1
inactive: UACC-257 > 100 µM | ACHN > 100 µM | COLO 205 > 100 µM | UACC-62 > 100 µM | KM12 > 100 µM | TK-10 > 100 µM | M14 > 100 µM | OVCAR-3 > 100 µM | 786-0 > 100 µM | NCI-H226 > 100 µM | SF-268 43.9 µM | A498 93.3 µM | CCRF-CEM > 100 µM | RXF 393 20.1 µM | IGROV-1 > 100 µM | HCT-116 > 100 µM | SNB-75 > 100 µM

Cn1c(=O)c(NC(=O)C(Cl)(Cl)Cl)nc2ccccc21
inactive: UACC-257 > 100 µM | COLO 205 > 100 µM | UACC-62 > 100 µM | KM12 > 100 µM | TK-10 > 100 µM | M14 > 100 µM | OVCAR-3 > 100 µM | 786-0 > 100 µM | NCI-H226 81.8 µM | SF-268 > 100 µM | A498 > 100 µM | CCRF-CEM > 100 µM | RXF 393 81.8 µM | IGROV-1 > 100 µM | HCT-116 > 100 µM | SNB-75 62.5 µM

CC(=O)OCC1OC(N2C(=O)/C(=N\NC(N)=S)c3ccc([N+](=O)[O-])cc32)C(OC(C)=O)C1OC(C)=O (stereo not given)
inactive: UACC-257 37.4 µM | ACHN 30.7 µM | COLO 205 31 µM | UACC-62 13.9 µM | KM12 38.5 µM | TK-10 > 100 µM | M14 70.5 µM | OVCAR-3 26.4 µM | 786-0 19.8 µM | NCI-H226 28.6 µM | SF-268 30.8 µM | CCRF-CEM 12.9 µM | RXF 393 20.2 µM | IGROV-1 48.8 µM | HCT-116 13.7 µM | SNB-75 18.6 µM

CC(=O)NC(CCCN)C(=O)NCc1ccccc1 (stereo not given)
inactive: UACC-257 > 100 µM | ACHN > 100 µM | COLO 205 > 100 µM | UACC-62 > 100 µM | KM12 > 100 µM | TK-10 > 100 µM | M14 > 100 µM | OVCAR-3 > 100 µM | 786-0 > 100 µM | NCI-H226 > 100 µM | SF-268 > 100 µM | A498 > 100 µM | CCRF-CEM > 100 µM | RXF 393 > 100 µM | IGROV-1 > 100 µM | HCT-116 > 100 µM | SNB-75 > 100 µM

CCNC(=O)/C=C/CCC#Cc1ccc(-c2ccc(-c3cccs3)s2)s1
inactive: UACC-257 > 100 µM | ACHN > 100 µM | COLO 205 1.63 µM | UACC-62 2.9 µM | KM12 > 100 µM | TK-10 > 100 µM | M14 5.61 µM | OVCAR-3 > 100 µM | 786-0 > 100 µM | NCI-H226 > 100 µM | SF-268 > 100 µM | CCRF-CEM > 100 µM | RXF 393 > 100 µM | IGROV-1 > 100 µM | HCT-116 > 100 µM | SNB-75 > 100 µM

C=CCN1C(=O)CS/C1=N\NC(=O)c1c(C)nc2sccn12
inactive: UACC-257 > 100 µM | ACHN > 100 µM | COLO 205 > 100 µM | UACC-62 > 100 µM | KM12 > 100 µM | TK-10 > 100 µM | OVCAR-3 > 100 µM | 786-0 > 100 µM | NCI-H226 > 100 µM | SF-268 > 100 µM | CCRF-CEM > 100 µM | RXF 393 > 100 µM | IGROV-1 > 100 µM | HCT-116 > 100 µM

COc1ccc(C2NCCc3c2[nH]c2ccccc32)cc1 (stereo not given)
inactive: UACC-257 45.6 µM | ACHN > 100 µM | COLO 205 32.2 µM | UACC-62 > 100 µM | KM12 > 100 µM | TK-10 > 100 µM | M14 23.2 µM | OVCAR-3 > 100 µM | 786-0 83.8 µM | NCI-H226 > 100 µM | SF-268 > 100 µM | CCRF-CEM 77.6 µM | RXF 393 67.1 µM | IGROV-1 > 100 µM | HCT-116 51.5 µM | SNB-75 30.5 µM

NC(=O)NC(=O)C1CCC(=O)N1S(=O)(=O)c1ccc(Cl)cc1 (stereo not given)
inactive: UACC-257 > 100 µM | ACHN > 100 µM | COLO 205 > 100 µM | UACC-62 > 100 µM | KM12 > 100 µM | TK-10 > 100 µM | M14 > 100 µM | OVCAR-3 > 100 µM | 786-0 > 100 µM | NCI-H226 > 100 µM | SF-268 > 100 µM | CCRF-CEM 77.4 µM | RXF 393 > 100 µM | IGROV-1 > 100 µM | HCT-116 > 100 µM | SNB-75 > 100 µM

CCOC(=O)/C(O)=C/c1cc(OC)cc(=O)o1
inactive: UACC-257 > 100 µM | ACHN > 100 µM | COLO 205 > 100 µM | UACC-62 > 100 µM | KM12 > 100 µM | TK-10 > 100 µM | M14 > 100 µM | OVCAR-3 > 100 µM | 786-0 > 100 µM | NCI-H226 > 100 µM | SF-268 > 100 µM | A498 > 100 µM | CCRF-CEM > 100 µM | RXF 393 > 100 µM | IGROV-1 > 100 µM | HCT-116 > 100 µM | SNB-75 > 100 µM

O=C1N2Cc3c4ccc5c3CN3C(=O)N6Cc7c(ccc(c7CN1C6(c1ccccc1)C23c1ccccc1)OCCOCCOc1cc(Br)c(Br)cc1OCCOCCO4)OCCOCCOc1cc(Br)c(Br)cc1OCCOCCO5 (stereo not given)
inactive: UACC-257 > 100 µM | ACHN 47.8 µM | UACC-62 > 100 µM | KM12 > 100 µM | TK-10 65.9 µM | M14 21.9 µM | OVCAR-3 > 100 µM | 786-0 > 100 µM | NCI-H226 > 100 µM | SF-268 > 100 µM | CCRF-CEM > 100 µM | RXF 393 > 100 µM | IGROV-1 44 µM | HCT-116 > 100 µM | SNB-75 38.2 µM
